This note sets out measurements from patent US12415797B2, “Heterocyclic compound as CDK-HDAC double-channel inhibitor” (Hangzhou Innogate Pharma Co., Ltd., priority 2018, dated 2025).

What all share (type): biochemical
For one assay, the target named is CDK6/cycD3 (Homo sapiens (Human), UniProt Q00534). Nature of the assay: CDK6/cycD3 kinase Mobility Shift Assay. The following applies: CDK6/cycD3 15 nM, ATP Km 800 μM, 60 min, 28° C. The method, then: (§1) In vitro enzymatic activity of the CDK isoforms CDK2/CycA2, CDK4/CycD3 and CDK6/cycD3 were measured using Mobility Shift Assay that monitors phosphorylation ratio of FAM labelled peptide (Peptide 18 for CDK2/CycA2, Peptide 8 for CDK4/CycD3). CDK2/CycA2 and CDK6/CycD3 were assayed under buffer conditions in the presence of 50 mM HEPES (pH 7.5), 10 mM MgCl2, 0.0015% Brij-35 and 2 mM dithiothreitol; CDK4/CycD3 with buffer condition of 20 mM HEPES (pH 7.5), 10 mM MgCl2, 0.01% Triton X-100 and 2 mM dithiothreitol. Prepare compounds to 50× of the final desired highest inhibitor concentration by 100% DMSO and serial dilution in 3-fold for total of 10 concentrations. For each isoform, dosage of enzyme and substrate are CDK2/CycA2 12 nM, ATP Km 39 μM; CDK4/CycD3 10 nM, ATP Km […]; CDK6/cycD3 15 nM, ATP Km 800 μM. After assay for 60 min, 180 min, 60 min respectively at 28° C., reactions were terminated with stop solution (50 mM EDTA, 0.015% Brij-35, 0.2% Coating Reagent #3 and 100 mM HEPES (pH 7.5)). Collect conversion on Caliper EZ Reader. IC50 values were calculated by fitting the dose-response curves with Xlfit excel add-in version 4.3.1.
Chain of CDK6/cycD3 (Q00534 whole entry, species assumed, canonical isoform): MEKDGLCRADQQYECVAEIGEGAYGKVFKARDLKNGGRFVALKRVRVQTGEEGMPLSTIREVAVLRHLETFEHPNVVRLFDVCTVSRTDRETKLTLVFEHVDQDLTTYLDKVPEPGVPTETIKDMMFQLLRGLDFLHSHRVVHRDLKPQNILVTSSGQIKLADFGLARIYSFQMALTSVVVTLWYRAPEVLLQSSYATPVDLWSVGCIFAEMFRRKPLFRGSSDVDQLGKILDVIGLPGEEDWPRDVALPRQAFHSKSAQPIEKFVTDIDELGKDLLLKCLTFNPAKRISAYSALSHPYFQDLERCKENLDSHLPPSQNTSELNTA
Chain of CDK6/cycD3 (P30281 whole entry partner, species assumed, canonical isoform): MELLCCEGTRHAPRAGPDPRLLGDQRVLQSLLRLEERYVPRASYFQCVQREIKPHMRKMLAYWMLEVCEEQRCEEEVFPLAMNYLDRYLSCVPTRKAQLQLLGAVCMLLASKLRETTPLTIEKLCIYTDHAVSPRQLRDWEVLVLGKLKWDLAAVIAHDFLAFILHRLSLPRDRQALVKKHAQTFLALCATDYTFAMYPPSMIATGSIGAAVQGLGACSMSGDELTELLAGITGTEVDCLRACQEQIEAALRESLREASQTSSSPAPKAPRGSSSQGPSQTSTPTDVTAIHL

Another assay concerns the target CDK4/CycD3 (Homo sapiens (Human), UniProt P11802). Nature of the assay: CDK4/CycD3 kinase Mobility Shift Assay. The following applies: CDK4/CycD3 10 nM, ATP Km 221 μM, 180 min, 28° C. As to the method:
as §1

A further assay concerns the target HDAC-6 (Homo sapiens (Human), UniProt Q9UBN7). Description: HDAC-6 fluorogenic deacetylase assay (Ac-peptide-AMC). The following applies: recombinant, full-length protein, Ac-peptide-AMC substrate; read-out: HDAC6 (IC5). As to the method: (§2) The inhibitory effect of compounds on HDAC-1 and HDAC-6 function was determined in vitro using an optimized homogenous assay performed in 384-well plate format. In this assay, the recombinant, full-length HDAC-1, HDAC-2 or HDAC-6 protein (BPS Biosciences) was incubated with Ac-peptide-AMC with concentrations in the Km plot. Reactions were performed in Tris-based assay buffer and were followed for fluorogenic release of 7-amino-4-methylcoumarin from substrate upon deacetylase and trypsin enzymatic activity. Fluorescence measurements were obtained using a multilabel plate reader (Synergy MX with excitation at 355 nm and emission at 460 nm). Data were analyzed on a plate-by-plate basis for the linear range of fluorescence over time. Fit the data in GraphPad Prism V5.0 software to obtain IC50 values using equation (Y=Bottom+(Top-Bottom)/(1+10^((Log IC50−X)*Hill Slope), Y is % inhibition and X is compound concentration).

In the next assay the target is CDK2/CycA2 (Homo sapiens (Human), UniProt P24941). Nature of the assay: CDK2/CycA2 kinase Mobility Shift Assay. The following applies: CDK2/CycA2 12 nM, ATP Km 39 μM, 60 min, 28° C. The method, then:
as §1

The target in a further assay is HDAC-1 (Homo sapiens (Human), UniProt Q13547). Nature of the assay: HDAC-1 fluorogenic deacetylase assay (Ac-peptide-AMC). The following applies: recombinant, full-length protein, Ac-peptide-AMC substrate; read-out: HDAC1 (IC50). The method, then: as §2
Chain of HDAC-1 (Q13547 whole entry): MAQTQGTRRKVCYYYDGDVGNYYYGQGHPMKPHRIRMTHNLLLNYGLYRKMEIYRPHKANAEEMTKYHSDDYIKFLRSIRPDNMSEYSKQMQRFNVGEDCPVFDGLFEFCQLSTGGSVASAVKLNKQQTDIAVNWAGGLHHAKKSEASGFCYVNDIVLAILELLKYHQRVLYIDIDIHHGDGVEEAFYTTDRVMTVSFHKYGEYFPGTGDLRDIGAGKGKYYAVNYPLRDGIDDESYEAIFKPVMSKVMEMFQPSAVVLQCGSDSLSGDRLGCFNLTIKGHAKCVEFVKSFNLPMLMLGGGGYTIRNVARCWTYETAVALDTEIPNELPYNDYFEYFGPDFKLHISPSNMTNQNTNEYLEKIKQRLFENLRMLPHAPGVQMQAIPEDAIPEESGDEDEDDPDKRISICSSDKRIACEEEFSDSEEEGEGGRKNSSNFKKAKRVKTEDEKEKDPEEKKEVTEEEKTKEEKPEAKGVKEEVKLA

Chain of CDK4/CycD3 (P11802 whole entry, species assumed): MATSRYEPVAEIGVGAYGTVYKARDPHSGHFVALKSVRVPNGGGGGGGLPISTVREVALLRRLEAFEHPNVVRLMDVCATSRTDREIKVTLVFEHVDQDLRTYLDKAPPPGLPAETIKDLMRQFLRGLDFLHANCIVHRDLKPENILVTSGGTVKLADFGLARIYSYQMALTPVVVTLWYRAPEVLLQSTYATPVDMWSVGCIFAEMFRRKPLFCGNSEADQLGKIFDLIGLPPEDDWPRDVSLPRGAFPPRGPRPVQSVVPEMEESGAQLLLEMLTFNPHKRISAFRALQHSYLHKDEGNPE
Chain of CDK4/CycD3 (P30281 whole entry partner, species assumed): as the sequence (P30281 whole entry partner, species assumed, canonical isoform) above
Chain of HDAC-6 (Q9UBN7 whole entry): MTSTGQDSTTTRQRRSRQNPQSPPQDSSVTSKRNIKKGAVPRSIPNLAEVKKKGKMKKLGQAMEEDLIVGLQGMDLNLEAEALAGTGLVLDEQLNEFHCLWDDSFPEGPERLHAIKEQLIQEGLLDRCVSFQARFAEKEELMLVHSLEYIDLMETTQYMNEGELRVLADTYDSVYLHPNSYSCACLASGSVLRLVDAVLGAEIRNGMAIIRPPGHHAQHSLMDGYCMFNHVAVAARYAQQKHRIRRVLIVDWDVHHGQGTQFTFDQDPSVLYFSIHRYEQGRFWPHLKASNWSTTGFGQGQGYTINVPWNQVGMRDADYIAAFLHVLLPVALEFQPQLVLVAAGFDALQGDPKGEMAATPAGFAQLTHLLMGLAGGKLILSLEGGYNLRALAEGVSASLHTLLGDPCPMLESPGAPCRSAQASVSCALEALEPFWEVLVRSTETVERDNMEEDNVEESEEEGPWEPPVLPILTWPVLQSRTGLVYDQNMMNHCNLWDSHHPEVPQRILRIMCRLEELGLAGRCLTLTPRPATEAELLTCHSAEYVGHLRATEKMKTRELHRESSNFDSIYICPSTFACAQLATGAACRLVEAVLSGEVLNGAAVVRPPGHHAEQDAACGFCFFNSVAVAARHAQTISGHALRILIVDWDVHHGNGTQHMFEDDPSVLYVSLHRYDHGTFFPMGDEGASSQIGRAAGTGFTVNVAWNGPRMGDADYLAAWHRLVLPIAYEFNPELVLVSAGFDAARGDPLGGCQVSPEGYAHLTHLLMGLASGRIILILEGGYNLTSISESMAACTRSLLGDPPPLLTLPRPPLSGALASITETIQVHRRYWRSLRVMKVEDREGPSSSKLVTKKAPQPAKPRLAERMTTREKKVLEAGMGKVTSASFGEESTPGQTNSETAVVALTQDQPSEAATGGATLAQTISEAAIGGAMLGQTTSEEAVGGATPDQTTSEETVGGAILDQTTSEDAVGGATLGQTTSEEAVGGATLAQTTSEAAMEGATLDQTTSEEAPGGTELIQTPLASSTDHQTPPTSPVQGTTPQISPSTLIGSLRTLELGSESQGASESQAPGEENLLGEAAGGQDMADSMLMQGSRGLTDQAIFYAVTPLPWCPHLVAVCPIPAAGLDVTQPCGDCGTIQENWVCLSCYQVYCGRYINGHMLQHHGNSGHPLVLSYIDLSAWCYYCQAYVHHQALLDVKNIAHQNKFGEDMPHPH

Turning to `Cc1nc2c(F)cc(-c3nc(Nc4ccc(N5CCC(C(=O)NO)CC5)cn4)ncc3F)cc2n1C(C)C` [Compound 15, 1-(6-((5-fluoro-4-(4-fluoro-1-isopropyl-2-methyl-1H-benzo[d]imidazol-6-yl)pyrimidin-2-yl)amino)pyridin-3-yl)-N-hydroxypiperidine-4-carboxamide], the IC50 on CDK6/cycD3 is 10 to 100 nM; at CDK4/CycD3, less than 10 nM; on HDAC-6 it was 100 to 500 nM; at CDK2/CycA2, 10 to 100 nM; at HDAC-1, no less than 1000 nM.

On to `Cc1nc2c(F)cc(-c3nc(Nc4ccc(-c5ccc(C(=O)NO)cn5)cn4)ncc3F)cc2n1C(C)C` [Compound 16, 6′-((5-fluoro-4-(4-fluoro-1-isopropyl-2-methyl-1H-benzo[d]imidazol-6-yl)pyrimidin-2-yl)amino)-N-hydroxy-[2,3′-bipyridine]-5-carboxamide], for which the IC50 is 10 to 100 nM at CDK6/cycD3; less than 10 nM on CDK4/CycD3; 100 to 500 nM on HDAC-6; less than 10 nM at CDK2/CycA2; no less than 1000 nM at HDAC-1.
